Like-named read-outs stand apart in the source and are kept apart here.
Tests used:
human δ receptors [1] = biological target: T1, human δ receptors (Homo sapiens, UniProt P41143); assay: Binding assay, cloned human δ receptor membranes (125I-Deltorphin II displacement)
T1 construct: expressed in transfected cells

[2] = biological target: T2, δ receptors in rat brain membranes (Rattus norvegicus, UniProt P33533); assay: Rat brain GTP[γ]35S binding functional assay; format: biochemical; conditions: for Emax: Table 1, rat brain membranes, relative to SNC80
T2 construct: membranes from HEK-293S cells expressing the cloned human opioid receptors or from homogenised rat or mouse brain; from tissue; host or cells: rat brain homogenate membranes
Protocol: Rat brains are weighed and rinsed in ice-cold PBS (containing 2.5 mM EDTA, pH 7.4). The brains are homogenized with a polytron for 30 sec (rat) in ice-cold lysis buffer (50 mM Tris, pH 7.0, 2.5 mM EDTA, with phenylmethylsulfonyl fluoride added just prior use to […] from a 0.5M stock in DMSO:ethanol).
(§1) The agonist activity of the compounds is measured by determining the degree to which the compounds receptor complex activates the binding of GTP to G-proteins to which the receptors are coupled. In the GTP binding assay, GTP[γ]^35S is combined with test compounds and membranes from HEK-293S cells expressing the cloned human opioid receptors or from homogenised rat or mouse brain. Agonists stimulate GTP[γ]^35S binding in these membranes. The EC50 and Emax values of compounds are determined from dose-response curves. Right shifts of the dose response curve by the delta antagonist naltrindole are performed to verify that agonist activity is mediated through delta receptors. For human δ receptor functional assays, EC50 (low) is measured when the human δ receptors used in the assay were expressed at lower levels in comparison with those used in determining EC50 (high). The Emax values were determined in relation to the standard δ agonist SNC80, i.e., higher than 100% is a compound that have better efficacy than SNC80.
(§2) Rat brain membranes are thawed at 37° C., passed 3 times through a 25-gauge blunt-end needle and diluted in the GTPγS binding (50 mM Hepes, 20 mM NaOH, 100 mM NaCl, 1 mM EDTA, 5 mM MgCl2, pH 7.4, Add fresh: 1 mM DTT, 0.1% BSA). 120 μM GDP final is added membranes dilutions. The EC50 and Emax of compounds are evaluated from 10-point dose-response curves done in 300 μl with the appropriate amount of membrane protein (20 μg/well) and 100000-130000 dpm of GTPγ^35S per well (0.11-0.14 nM). The basal and maximal stimulated binding are determined in absence and presence of 3 μM SNC-80. The assay performed on HEK 293s cells stably expressing cloned Delta receptors is done in a slightly different buffer (50 mM Hepes, 20 mM NaOH, 200 mM NaCl, 1 mM EDTA, 5 mM MgCl2, pH 7.4, Add fresh: 0.5% BSA, no DTT) and with a 3 μM final conc. of GDP.

human κ receptors = biological target: T3, human κ receptors (Homo sapiens, UniProt P41145); assay: Binding assay, cloned human κ receptor membranes (125I-DPDYN displacement)
T3 construct: expressed in transfected cells; host or cells: human 293S cells, geneticin-selected

human δ receptors [3] = biological target: T1, human δ receptors; assay: GTP[γ]35S binding functional assay, HEK-293S membranes expressing cloned human δ receptors; format: biochemical; conditions: for Emax: relative to standard δ agonist SNC80
Protocol: as §1, §2

human μ receptors = biological target: T4, human μ receptors (Homo sapiens, UniProt P35372); assay: Binding assay, cloned human μ receptor membranes (125I-FK33824 displacement)
T4 construct: expressed in transfected cells; host or cells: human 293S cells, geneticin-selected

[4] = Table 1, higher receptor expression, read-out: Human δ % EMax (high)
[5] = Table 2, read-out: Human κ IC50
[6] = Table 2, lower receptor expression, read-out: Human δ % EMax (low)

T1 sequence (P41143 whole entry): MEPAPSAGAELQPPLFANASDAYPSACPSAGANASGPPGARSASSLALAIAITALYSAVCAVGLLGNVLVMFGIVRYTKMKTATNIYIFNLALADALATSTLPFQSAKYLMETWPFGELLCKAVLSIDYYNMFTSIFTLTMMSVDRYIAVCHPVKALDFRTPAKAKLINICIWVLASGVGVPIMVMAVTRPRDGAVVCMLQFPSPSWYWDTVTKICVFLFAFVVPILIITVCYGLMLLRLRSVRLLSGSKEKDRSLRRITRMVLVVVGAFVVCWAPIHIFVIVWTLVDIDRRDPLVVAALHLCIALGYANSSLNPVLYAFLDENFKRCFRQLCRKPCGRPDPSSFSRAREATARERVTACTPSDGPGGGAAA
T3 sequence (P41145 whole entry): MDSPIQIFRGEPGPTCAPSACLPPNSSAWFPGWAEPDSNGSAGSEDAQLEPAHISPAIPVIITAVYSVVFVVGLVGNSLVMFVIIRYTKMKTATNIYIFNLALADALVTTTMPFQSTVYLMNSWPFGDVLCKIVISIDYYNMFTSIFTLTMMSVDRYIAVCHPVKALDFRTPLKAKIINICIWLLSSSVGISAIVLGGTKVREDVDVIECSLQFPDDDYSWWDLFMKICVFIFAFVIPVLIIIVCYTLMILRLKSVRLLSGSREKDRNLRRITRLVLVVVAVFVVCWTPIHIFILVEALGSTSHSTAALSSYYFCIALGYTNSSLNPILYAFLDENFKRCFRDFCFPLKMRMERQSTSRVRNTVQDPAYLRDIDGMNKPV
T2 sequence (P33533 whole entry): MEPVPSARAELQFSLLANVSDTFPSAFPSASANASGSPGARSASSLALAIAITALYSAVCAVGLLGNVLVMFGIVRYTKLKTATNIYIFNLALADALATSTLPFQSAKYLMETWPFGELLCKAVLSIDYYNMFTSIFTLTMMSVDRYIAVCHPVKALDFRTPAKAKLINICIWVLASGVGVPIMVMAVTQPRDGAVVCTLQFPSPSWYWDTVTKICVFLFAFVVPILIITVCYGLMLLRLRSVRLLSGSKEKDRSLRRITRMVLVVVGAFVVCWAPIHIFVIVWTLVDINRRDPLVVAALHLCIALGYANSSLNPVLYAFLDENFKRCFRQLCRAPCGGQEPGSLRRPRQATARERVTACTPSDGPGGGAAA
T4 sequence (P35372 whole entry): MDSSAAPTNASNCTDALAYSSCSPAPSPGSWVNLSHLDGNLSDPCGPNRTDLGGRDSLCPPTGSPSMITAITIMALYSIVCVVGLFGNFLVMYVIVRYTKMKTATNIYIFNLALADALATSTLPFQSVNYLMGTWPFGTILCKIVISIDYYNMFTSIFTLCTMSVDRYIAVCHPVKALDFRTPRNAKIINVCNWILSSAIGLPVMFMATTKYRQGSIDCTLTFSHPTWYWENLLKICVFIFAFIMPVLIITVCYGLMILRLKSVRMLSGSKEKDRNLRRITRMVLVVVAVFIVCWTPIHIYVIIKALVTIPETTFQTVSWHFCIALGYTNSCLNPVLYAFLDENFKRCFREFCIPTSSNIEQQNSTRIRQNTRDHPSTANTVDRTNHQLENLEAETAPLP

SMILES | IC50 (human δ receptors [1]) [nM] | EC50 [2] [nM] | Emax [2] [%] | IC50 (human κ receptors) [nM] | EC50 (human δ receptors [3]) [nM] | Emax (human δ receptors [3]; [4]) [%] | IC50 (human μ receptors) [nM] | IC50 (human κ receptors; [5]) [nM] | Emax (human δ receptors [3]; [6]) [%]
CCN(CC)C(=O)c1ccc(C(=C2CCN(Cc3ccccc3)CC2)c2cccc(NC(C)=O)c2)cc1 [Compound 3, 4-[[3-(acetylamino)phenyl][1-(phenylmethyl)-4-piperidinylidene]methyl]-N,N-diethyl-benzamide] | 0.34 to 0.59 | 7.2 to 15.8 | 126 to 137 | 2470 to 8000 | 1.46 to 2.65 | 95 to 98 | 344 to 368 |  | 
CCN(CC)C(=O)c1ccc(C(=C2CCN(Cc3ccco3)CC2)c2cccc(NC(C)=O)c2)cc1 [Compound 2, 4-{[3-(acetylamino)phenyl][1-(2-furylmethyl)piperidin-4-ylidene]methyl}-N,N-diethylbenzamide] | 0.19 to 1.49 |  |  |  |  |  |  | 5830 to 9070 | 80 to 112
CCN(CC)C(=O)c1ccc(C(=C2CCN(Cc3cccs3)CC2)c2cccc(NC(C)=O)c2)cc1 [Compound 1, 4-{[3-(acetylamino)phenyl][1-(thien-2-ylmethyl)piperidin-4-ylidene]methyl}-N,N-diethylbenzamide] | 0.19 to 1.49 |  |  |  |  |  |  | 5830 to 9070 | 80 to 112
CCN(CC)C(=O)c1ccc(C(=C2CCN(Cc3ccsc3)CC2)c2cccc(NC(C)=O)c2)cc1 [Compound 4, 4-[[3-(acetylamino)phenyl][1-(3-thienylmethyl)-4-piperidinylidene]methyl]-N,N-diethyl-benzamide] | 0.34 to 0.59 | 7.2 to 15.8 | 126 to 137 | 2470 to 8000 | 1.46 to 2.65 | 95 to 98 | 344 to 368 |  | 
CCN(CC)C(=O)c1ccc(C(=C2CCN(Cc3ccncc3)CC2)c2cccc(NC(C)=O)c2)cc1 [Compound 6, 4-[[-3-(acetylamino)phenyl][1-(4-pyridinylmethyl)-4-piperidinylidene]methyl]-N,N-diethyl-benzamide] | 0.19 to 1.49 |  |  | 5830 to 9070 |  |  |  |  | 80 to 112
CCN(CC)C(=O)c1ccc(C(=C2CCN(Cc3cccnc3)CC2)c2cccc(NC(C)=O)c2)cc1 [Compound 5, 4-[[3-(acetylamino)phenyl][1-(3-pyridinylmethyl)-4-piperidinylidene]methyl]-N,N-diethyl-benzamide] | 0.19 to 1.49 |  |  | 5830 to 9070 |  |  |  |  | 80 to 112
CCN(CC)C(=O)c1ccc(C(=C2CCN(Cc3ccccn3)CC2)c2cccc(NC(C)=O)c2)cc1 [Compound 7, 4-{[3-(acetylamino)phenyl][1-(pyridin-2-ylmethyl)piperidin-4-ylidene]methyl}-N,N-diethylbenzamide] | 0.19 to 1.49 |  |  |  |  |  |  | 5830 to 9070 | 80 to 112
CCN(CC)C(=O)c1ccc(C(=C2CCN(Cc3cscn3)CC2)c2cccc(NC(C)=O)c2)cc1 [Compound 8, 4-{[3-(acetylamino)phenyl][1-(1,3-thiazol-4-ylmethel)piperidin-4-ylidene]methyl}-N,N-diethylbenzamide] | 0.19 to 1.49 |  |  |  |  |  |  | 5830 to 9070 | 80 to 112
CCN(CC)C(=O)c1ccc(C(=C2CCN(Cc3cncs3)CC2)c2cccc(NC(C)=O)c2)cc1 [Compound 9, 4-{[3-(acetylamino)phenyl][1-(1,3-thiazol-5-ylmethyl)piperidin-4-ylidene]methyl}-N,N-diethylbenzamide] | 0.19 to 1.49 |  |  |  |  |  |  | 5830 to 9070 | 80 to 112
